Source: PubChem BioAssay (NCI)
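Protocol summary: plate cells (96-well), add compound at 5 concentrations, incubate 48 h, interpolate endpoints linearly. The concentration for full growth arrest is given as TGI.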

Tests used:
Assay in all cases: NCI tumour cell line growth inhibition, 48 h
A498 renal = system: A498 renal
A549 NSCLC = system: A549 NSCLC
CAKI-1 renal = system: CAKI-1 renal
CCRF-CEM leukemia = system: CCRF-CEM leukemia
COLO 205 colon = system: COLO 205 colon
DLD-1 colon = system: DLD-1 colon
DMS 114 small cell lung = system: DMS 114 small cell lung
DMS 273 small cell lung = system: DMS 273 small cell lung
EKVX NSCLC = system: EKVX NSCLC
HCC-2998 colon = system: HCC-2998 colon
HCT-116 colon = system: HCT-116 colon
HCT-15 colon = system: HCT-15 colon
HL-60(TB) leukemia = system: HL-60(TB) leukemia
HOP-62 NSCLC = system: HOP-62 NSCLC
HOP-92 NSCLC = system: HOP-92 NSCLC
HT29 colon = system: HT29 colon
IGROV1 ovarian = system: IGROV1 ovarian
K-562 leukemia = system: K-562 leukemia
KM12 colon = system: KM12 colon
KM20L2 colon = system: KM20L2 colon
LOX IMVI melanoma = system: LOX IMVI melanoma
M19-MEL melanoma = system: M19-MEL melanoma
MALME-3M melanoma = system: MALME-3M melanoma
MCF7 breast = system: MCF7 breast
MOLT-4 leukemia = system: MOLT-4 leukemia
NCI-H226 lung = system: NCI-H226 lung
NCI-H23 lung = system: NCI-H23 lung
NCI-H460 lung = system: NCI-H460 lung
NCI-H522 lung = system: NCI-H522 lung
NCI/ADR-RES ovarian = system: NCI/ADR-RES ovarian
OVCAR-3 ovarian = system: OVCAR-3 ovarian
OVCAR-4 ovarian = system: OVCAR-4 ovarian
OVCAR-5 ovarian = system: OVCAR-5 ovarian
OVCAR-8 ovarian = system: OVCAR-8 ovarian
P388 leukemia = system: P388 leukemia
P388/ADR leukemia = system: P388/ADR leukemia
RPMI-8226 leukemia = system: RPMI-8226 leukemia
RXF 393 renal = system: RXF 393 renal
SF-268 CNS = system: SF-268 CNS
SF-295 CNS = system: SF-295 CNS
SF-539 CNS = system: SF-539 CNS
SK-MEL-2 melanoma = system: SK-MEL-2 melanoma
SK-MEL-28 melanoma = system: SK-MEL-28 melanoma
SK-MEL-5 melanoma = system: SK-MEL-5 melanoma
SK-OV-3 ovarian = system: SK-OV-3 ovarian
SN12C renal = system: SN12C renal
SN12K1 renal = system: SN12K1 renal
SNB-19 CNS = system: SNB-19 CNS
SNB-75 CNS = system: SNB-75 CNS
SNB-78 CNS = system: SNB-78 CNS
SW-620 colon = system: SW-620 colon
U251 CNS = system: U251 CNS
UACC-257 melanoma = system: UACC-257 melanoma
UACC-62 melanoma = system: UACC-62 melanoma
UO-31 renal = system: UO-31 renal
XF 498 CNS = system: XF 498 CNS

Measured: TGI

Nc1n[nH]c(=O)[nH]1
> 100 µM: all assays above
